In brackets after ≈: the same amount, converted by molar mass.
What was measured:
Bovine Xanthine Oxidase = biological target: T1, Bovine Xanthine Oxidase (Bos taurus, UniProt P80457); assay: Xanthine oxidase / hypoxanthine luminol chemiluminescence assay; format: biochemical; conditions: xanthine oxidase with hypoxanthine; mean ± SD, n in cell; read-out: X/XO IC50
T1 construct: purchased Sigma
Experimental: Bovine Xanthine Oxidase (Sigma) was dialyzed in PBS to remove ammonium sulfate and stored at 4 °C. Hypoxanthine was prepared by heating in DMSO. Reactions were prepared by diluting xanthine oxidase in HBSS (final concentration 1.25 mU/mL) that contained 50 μM luminol and were preincubated 5 min with control or inhibitor before the addition of hypoxanthine at a final concentration of 0.5 mM. Luminescence was measured at 24 °C as described above.

[1] = Aqueous kinetic solubility in PBS buffer; format: physicochemical; conditions: aqueous buffer, kinetic from dmso stock, read-out: Solubility
Experimental: (§1) The rat liver microsomal stability, parallel artificial membrane permeability assay (PAMPA), and aqueous kinetic solubility assay in phosphate-buffered saline (PBS) buffer were performed as described in the indicated references.

[2] = tested on: NOX3 reconstituted with p47phox and p67phox; assay: NOX3 reconstituted with cytosolic phox proteins (p47phox and p67phox), data not shown; format: cell-based
Description: Another experiment (data not shown) examined the potency of NCATS-SM7270 against NOX1 and NOX3 reconstituted with cytosolic phox proteins (p47phox and p67phox).

NOX1 = biological target: T2, NOX1 (Homo sapiens, UniProt Q9Y5S8); assay: Expi293 whole cell assay, NOX1 overexpression; format: cell-based; conditions: highest dose about 100x the IC50 versus NOX2
T2 construct: expressed in transfected cells; host or cells: Expi293 (human embryonic kidney) cells, transient transfection
T2 sequence (Q9Y5S8 1-564): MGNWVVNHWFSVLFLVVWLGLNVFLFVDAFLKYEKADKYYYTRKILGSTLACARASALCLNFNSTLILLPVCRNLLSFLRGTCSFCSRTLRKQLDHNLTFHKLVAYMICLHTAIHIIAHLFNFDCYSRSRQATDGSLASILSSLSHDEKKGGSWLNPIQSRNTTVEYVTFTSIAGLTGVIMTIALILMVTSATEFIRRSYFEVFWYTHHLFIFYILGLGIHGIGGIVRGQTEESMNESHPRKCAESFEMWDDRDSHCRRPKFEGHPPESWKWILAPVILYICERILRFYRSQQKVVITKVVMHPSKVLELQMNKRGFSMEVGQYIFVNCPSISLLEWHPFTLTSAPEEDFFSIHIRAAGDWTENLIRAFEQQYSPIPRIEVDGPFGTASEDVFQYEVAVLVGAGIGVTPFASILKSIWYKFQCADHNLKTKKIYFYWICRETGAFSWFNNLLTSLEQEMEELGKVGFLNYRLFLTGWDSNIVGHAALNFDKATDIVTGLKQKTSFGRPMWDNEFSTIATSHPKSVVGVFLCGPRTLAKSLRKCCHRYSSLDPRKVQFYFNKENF
T2 sequence (P13498 2-195 partner limits assumed): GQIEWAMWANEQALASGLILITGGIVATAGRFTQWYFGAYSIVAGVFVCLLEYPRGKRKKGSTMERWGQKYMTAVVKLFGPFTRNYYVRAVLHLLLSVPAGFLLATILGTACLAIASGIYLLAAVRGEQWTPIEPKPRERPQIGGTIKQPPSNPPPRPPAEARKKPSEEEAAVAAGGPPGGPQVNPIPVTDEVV
Experimental: (§2) Given concerns about previous assays for specific NOX family members we here report the first use of the Expi293 Expression System (Thermo Scientific) to overexpress NOX1, 2, 3, 4, and 5 in excess of any endogenous NOX proteins present in these cells. Transfections were performed following the manufacturer's instructions using the plasmids for each NOX as described in Supplemental Table 2 except that the enhancer solution provided with the Expi293 system was not used because it promoted enzyme activation.
(§3) After the times indicated in Supplemental Table 2, cells were washed and 50,000 added per well of a white 96-well plate (Greiner) along with 50 μM Luminol and 2.5 U horseradish peroxidase/mL in a volume of 90 μl for NOX1, NOX2, and NOX5. Inhibitors or vehicle controls were added and cells were incubated for 20 min at 37 °C prior to activation with the indicated stimuli. For NOX3 and NOX4 (constitutively active), cells were incubated with inhibitor or vehicle control prior to the addition of luminol and HRP. Chemiluminescence was measured every 2 min for 1 s per well at 37 °C in a Varioscan Multimode reader. AUC data were analyzed using GraphPad Prism using non-linear regression analysis after expressing relative to control alone (maximum ROS production).

NOX4 = biological target: T3, NOX4 (Homo sapiens, UniProt Q9NPH5); assay: Expi293 whole cell assay, NOX4 overexpression; format: cell-based; conditions: doses 100x higher than GSK2795039
T3 construct: expressed in transfected cells; host or cells: Expi293 (human embryonic kidney) cells, transient transfection, 48 hours
T3 sequence (Q9NPH5 1-578): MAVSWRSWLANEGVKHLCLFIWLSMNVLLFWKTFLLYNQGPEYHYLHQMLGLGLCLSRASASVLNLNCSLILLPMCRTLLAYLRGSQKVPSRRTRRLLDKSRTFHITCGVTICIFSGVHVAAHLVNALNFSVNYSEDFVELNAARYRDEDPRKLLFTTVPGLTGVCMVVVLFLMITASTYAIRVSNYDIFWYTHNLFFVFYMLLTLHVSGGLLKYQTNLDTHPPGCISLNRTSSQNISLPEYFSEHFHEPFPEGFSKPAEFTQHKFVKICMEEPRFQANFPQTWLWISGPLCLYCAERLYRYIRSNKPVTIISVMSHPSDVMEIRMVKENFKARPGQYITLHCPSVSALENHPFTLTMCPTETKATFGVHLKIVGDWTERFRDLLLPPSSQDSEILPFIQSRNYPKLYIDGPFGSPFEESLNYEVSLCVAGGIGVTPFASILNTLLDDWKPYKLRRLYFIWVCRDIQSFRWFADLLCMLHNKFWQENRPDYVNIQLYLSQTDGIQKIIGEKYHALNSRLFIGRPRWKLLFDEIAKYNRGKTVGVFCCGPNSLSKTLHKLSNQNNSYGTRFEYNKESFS
T3 sequence (P13498 2-195 partner limits assumed): T2 sequence (P13498 2-195 partner limits assumed)
Experimental: as §2, §3

[3] = Parallel artificial membrane permeability assay (PAMPA); format: in vitro ADME; conditions: pH 7.4, PAMPA, pH7.4, read-out: Permeability(pH7.4) (PAMPA_Pion_Lipid 1e-6 cm/s)
Experimental: as §1

[4] = Rat liver microsomal stability; format: in vitro ADME; conditions: SD, rat, liver microsomes, read-out: Rat_SD/Microsomes t1/2 (m)
Experimental: as §1

T1 sequence (P80457 whole entry): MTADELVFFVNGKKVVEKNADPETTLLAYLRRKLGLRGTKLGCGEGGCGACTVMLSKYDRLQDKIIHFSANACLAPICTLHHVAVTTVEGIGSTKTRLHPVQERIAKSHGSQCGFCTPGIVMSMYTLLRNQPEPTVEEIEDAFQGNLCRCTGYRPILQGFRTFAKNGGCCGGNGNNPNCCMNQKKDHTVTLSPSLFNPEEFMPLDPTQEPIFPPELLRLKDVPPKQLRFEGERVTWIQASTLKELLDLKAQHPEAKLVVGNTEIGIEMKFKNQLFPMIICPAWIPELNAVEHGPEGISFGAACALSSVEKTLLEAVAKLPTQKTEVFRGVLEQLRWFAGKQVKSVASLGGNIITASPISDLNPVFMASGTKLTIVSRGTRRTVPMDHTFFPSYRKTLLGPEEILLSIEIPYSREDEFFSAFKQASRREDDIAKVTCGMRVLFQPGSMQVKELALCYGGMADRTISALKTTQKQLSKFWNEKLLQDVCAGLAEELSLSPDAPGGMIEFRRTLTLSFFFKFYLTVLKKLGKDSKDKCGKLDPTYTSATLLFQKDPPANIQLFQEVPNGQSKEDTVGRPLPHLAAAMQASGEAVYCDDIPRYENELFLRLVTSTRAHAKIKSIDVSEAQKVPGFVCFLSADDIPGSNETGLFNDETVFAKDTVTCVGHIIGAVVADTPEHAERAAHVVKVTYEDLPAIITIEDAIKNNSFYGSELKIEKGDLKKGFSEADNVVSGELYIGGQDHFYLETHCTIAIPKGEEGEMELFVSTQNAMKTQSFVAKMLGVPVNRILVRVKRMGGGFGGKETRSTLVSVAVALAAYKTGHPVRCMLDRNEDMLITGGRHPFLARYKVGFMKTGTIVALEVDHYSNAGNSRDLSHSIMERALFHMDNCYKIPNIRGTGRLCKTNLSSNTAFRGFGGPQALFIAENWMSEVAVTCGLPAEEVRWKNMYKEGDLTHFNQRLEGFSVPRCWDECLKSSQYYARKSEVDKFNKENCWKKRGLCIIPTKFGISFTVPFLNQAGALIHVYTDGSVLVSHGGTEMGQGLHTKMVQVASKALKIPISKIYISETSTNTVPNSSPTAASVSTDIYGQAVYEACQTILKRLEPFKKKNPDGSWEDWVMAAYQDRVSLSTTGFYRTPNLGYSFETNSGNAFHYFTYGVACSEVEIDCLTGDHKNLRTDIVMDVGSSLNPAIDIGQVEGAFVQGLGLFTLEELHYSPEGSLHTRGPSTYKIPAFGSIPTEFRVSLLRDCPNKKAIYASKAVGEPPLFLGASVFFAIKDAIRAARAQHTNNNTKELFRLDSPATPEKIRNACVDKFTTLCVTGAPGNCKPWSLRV

Q: Which IC50 (Bovine Xanthine Oxidase) does the source give for `Cn1ccc(S(=O)(=O)Nc2ccnc3c2c(-c2ccc4ccn(C)c4c2)cn3C2CC2)n1` [NCATS-SM7270, N-(1-cyclopropyl-3-(1-methyl-1H-indol-6-yl)-1H-pyrrolo [2,3-b]pyridin-4-yl)-1-methyl-1H-pyrazole-3-sulfonamide] here?
A: Its IC50 is 4.1 ± 5.66 µM.

Q: What about the solubility [1] of the same compound?
A: The solubility was 19.6 µg/mL (≈ 43.9 µM).

Q: What about the “dose needed to observe inhibition of NOX3 versus NOX2” value [2] of the same compound?
A: The value was about 10 fold.

Q: What about the “activity against NOX1” value (NOX1) of the same compound?
A: The value was “only marginal activity at the highest dose tested”.

Q: And the “activity against NOX4” value (NOX4)?
A: The value was “no detectable activity”.

Q: And the Papp [3]?
A: The Papp was 999 ×10⁻⁶ cm/s.

Q: What about the half-life [4] of the same compound?
A: Its half-life is 3.7 min.

Reference: publication PMC9894920, “Development of an improved and specific inhibitor of NADPH oxidase 2 to treat traumatic brain injury” (Redox Biology, 2023)
